This is an account of results in patent publication US20080262228A1, “Metabolites of 5-fluoro-8- quinoline and methods of preparation and uses thereof” (Wyeth, priority 2006, published 2008).

Where a name gives a salt, the structure may show the parent alone.

Data set [1] in a line: Metabolite profiling in liver microsomes and S9. It counts as in vitro ADME, rat, dog, monkey, human. The note with it: liver microsomes and S9, 10 μM COMPOUND I, 30 min; species letters not defined. Here is the method:
Microsomal incubations for metabolite profiling were similar to those described above for intrinsic clearance determination (see Table 1). Aliquots of COMPOUND I (10 μL), dissolved in DMSO:methanol (1:9), were added to a 96-well plate containing phosphate buffer, and MgCl2 and the liver microsomes at 37° C. using the same automation apparatus as for the stability study described hereinabove. The reactions were initiated by the addition of the UDPGA and NADPH generating system. The final incubation volume for all samples was 1 mL and the length of incubation was 30 min. […] Three 250 μL aliquots were transferred to a 96-well plate containing 900 μL acetonitrile to precipitate the protein. […] The samples were then reconstituted in 150 μL of 20% methanol in water. The three aliquots for each sample were pooled and analyzed by LC/MS.
S9 incubation buffer and cofactors were chosen to allow N-acetylation and carbamoyl glucuronidation in addition to oxidative and glucuronidation pathways possible in liver microsomes. Incubations of sulfamethazine and SCA-136 with liver S9 were used as positive controls for N-acetylation and carbamoyl glucuronidation, respectively. Following a 30 min. incubation, 750 μL from each sample were added to 900 μL acetonitrile. Following centrifugation and evaporation of the supernatant, the samples were reconstituted in 450 μL of 20% methanol in water for analysis by HPLC/UV and LC/MS (see below).
The HPLC system used for mass spectrometric analysis was an Agilent 1100 HPLC (Agilent Technologies, Palo Alto, Calif.) equipped with a binary pump and a diode array UV detector. The UV detector was set to monitor 190-400 nm. Separations were accomplished on a Luna C18 column (150×2.1 mm, 5 μm) (Phenomenex Incorporated, Torrance, Calif.).
The mass spectrometer used for metabolite characterization was a Finnigan LCQ Deca ion trap mass spectrometer (Thermo Electron Corp.). […] Full scan and data dependent MS2 and MS3 mass spectra were recorded. Finnigan Xcalibur software (version 1.3) was used for control of equipment and recording of data from UV and LC/MS analyses.
Chromatographic profiles of COMPOUND I (10 μM) metabolites in incubations with liver microsomes in the presence of NADPH are presented in FIG. 1. Chromatographic profiles of COMPOUND I (10 μM) metabolites in incubations with liver microsomes in the presence of NADPH and UDPGA are presented in FIG. 2. Chromatographic profiles of COMPOUND I (10 μM) metabolites in incubations with liver S9 in the presence of NADPH, UDPGA and acetyl coenzyme A (CoA) are presented in FIG. 3. In incubations containing NADPH, UDPGA and acetyl CoA, fourteen Phase I metabolites (M1, M6, M8, M12, M13, M14, M15, M16, M17, M18, M20, M21, M22 and M23) and six Phase II metabolites (M2, M3, M5, M7, M9 and M10) were observed. In incubations without cofactors, no metabolites were observed.
LC/MS analysis was conducted on extracts of mouse, rat, monkey and human liver microsomes and S9. The mass spectral data for the characterized COMPOUND I metabolites are discussed below.
Background: Liver microsomes are a subcellular fraction often used to study metabolism.

Data set [2] in a line: in vitro. The note with it: microsomes. The protocol:
Experiments were conducted to determine the intrinsic clearance by substrate depletion for COMPOUND I metabolism in liver microsomes in the presence of NADPH and UDPGA. Incubations containing midazolam (0.2 μM with 0.1 mg/mL liver microsomes) or diclofenac (1 μM with 1 mg/mL liver microsomes) were also performed as positive controls for oxidative and glucuronidation activity, respectively. Sample preparation and incubation were performed on a MultiProbe IIEX Robotic Liquid Handling System (Perkin-Elmer, Shelton, Conn.) and a Micromix 5 (Packard, Downers Grove, Ill.). Samples were pre-incubated at 37° C. Control incubations were conducted under the same conditions without cofactors. At specified time points (0, 10, 20 and 30 min), 150 μL aliquots were transferred to tubes with 500 μL acetonitrile containing 30 ng/mL of the internal standard (furosemide) to precipitate the protein. Samples were centrifuged at 4° C. for 10 min at 3400 rpm (ThermoForma, Marietta, Ohio). The supernatant (400 μL) was transferred to a clean test tube and the acetonitrile evaporated under a stream of nitrogen in a Turbo Vap (Caliper Life Sciences, Hopkinton, Mass.). The samples were then reconstituted in 200 μL of 20% methanol in water and analyzed by LC/MS.
The HPLC system used was a Surveyor HPLC (Thermo Electron Corp., San Jose, Calif.). Separations were accomplished on a Supelcosil LC-C18 column (150×4.6 mm, 5 μm) (Supelco, Bellefonte, Pa.). The column temperature was maintained at ambient and the sample chamber was at 10° C. Mobile phase A was 5 mM ammonium acetate in water and mobile phase B was methanol.
The mass spectrometer used for microsomal stability analysis was a TSQ Quantum (Thermo Electron Corp.; San Jose, Calif.) equipped with an electrospray ionization (ESI) source and operated in the positive ionization mode.
Peak area ratios for COMPOUND I against the internal standard were used to express the % remaining at given time points. The percent of remaining COMPOUND I was calculated by dividing the […]. In vitro intrinsic clearance (CLint) of COMPOUND I was calculated by linear regression of log % remaining vs time plots using Microsoft Excel, 7.0 and normalizing to mg protein content. Metabolic half-life (t1/2) was calculated by dividing 0.693 by the intrinsic clearance.

Data set [3] can be described thus: Turnover to metabolites in cryopreserved hepatocytes. The note with it: hepatocytes, 20 μM. Here is the method:
Chromatographic analyses were performed with a Waters Alliance model 2695 HPLC system (Waters Corp., Milford, Mass.) that was equipped with a built-in autosampler. The column eluent was monitored with a model 996 diode array UV detector, set to monitor 250 nm, and a FloOne β Model A525 radioactivity flow detector (Perkin Elmer) with a 250 μL flow cell. Separation of the parent compound from metabolites was accomplished using a Discovery C18 column, 250×4.6 mm, 5 μm (Supelco, Bellefonte, Pa.) at an ambient temperature of approximately 20° C. Mobile phase A was 10 mM ammonium acetate (pH 4.5) and mobile phase B was acetonitrile and they were delivered at 1 mL/min using the gradient described in Table 10. The Ultima Flo M scintillant flow rate was 3 mL/min.
Flo-One analytical software (version 3.65) was utilized to integrate the radioactive peaks. Means and standard deviations were calculated using Microsoft Excel® 2000. Micromass MassLynx software (version 4.0, Waters Corp.) was used for control of LC/MS equipment and recording of data from LC/MS analyses.

Broadly, the half-life is the time needed for the level to fall by half in the phase considered. A low value points to rapid decline. In general, microsomal CLint refers to a measure of how fast metabolising enzymes remove a compound, apart from limits set by blood flow. The low end stands for greater metabolic stability, the high end for faster metabolism. In the case of `COc1cc(N2CCN(C3CCN(c4ccc(F)c5cccnc45)CC3)CC2)c2ncccc2c1` [COMPOUND I, 5-Fluoro-8-{4-[4-(6-methoxyquinolin-8-yl)piperazin-1-yl]piperidin-1-yl}quinoline], the “Species (in which the metabolite was characterized)” value in data set [1] is “R, D, M, H”. The half-life at 1 μM is 7 min in data set [2] (both, human); 2 min in data set [2] (male, Sprague-Dawley, rat); 13 min in data set [2] (male, beagle, dog); 2 min in data set [2] (male, monkey). The microsomal CLint at 1 μM in data set [2] (both, human) was 100 µL/min/mg; in data set [2] (male, Sprague-Dawley, rat), 332 µL/min/mg; in data set [2] (male, beagle, dog), 55 µL/min/mg; in data set [2] (male, monkey), 312 µL/min/mg.
With `Oc1cc(N2CCN(C3CCN(c4ccc(F)c5cccnc45)CC3)CC2)c2ncccc2c1` [Metabolite M21, 8-{4-[1-(5-fluoroquinolin-8-yl)piperidin-4-yl]piperazin-1-yl}quinolin-6-ol trihydrochloride], the “Species (in which the metabolite was characterized)” value in data set [1] was “R, D, M, H”.
Turning to `COc1cc(N2CCN(C3CCN(c4ccc(F)c5cccnc45)CC3)CC2)c2ncccc2c1` [[^14C]COMPOUND I, [piperazine-^14C(U)]-5-fluoro-8-(4-(4-(6-methoxyquinolin-8-yl)piperazin-1-yl)piperidin-1-yl)quinoline trisuccinate], the “average turnover to metabolites” value in data set [3] (both, human, 1 h) is reported as 13%; in data set [3] (both, human, 4 h), 18%; in data set [3] (dog, 1 h), 8%; in data set [3] (dog, 4 h), 12%; in data set [3] (male, rat, 1 h), 32%; in data set [3] (male, rat, 4 h) it was 38%.
